Assay results published in patent EP0168181A1, “Cyclic amides” (IMPERIAL CHEMICAL INDUSTRIES PLC, priority 1984, dated 1986).

Tested on: aldose reductase
Experiment: in vivo aldose reductase inhibition in streptozotocin-diabetic rats (residual sorbitol in sciatic nerve)
Details: oral dose necessary to reduce residual sorbitol level in sciatic nerve of dosed diabetic rat to level similar to normal undosed rat; dosed daily 2-5 days
Description: Thus, rats are made diabetic (as evidenced by severe glucosuria being present) by dosing with streptozotocin. The animals are then dosed daily with the test compound for 2-5 days. The animals are then killed 2-4 hours after the final dose and the eye lenses and/or sciatic nerves are removed. After a standard work-up procedure the residual sorbitol levels in each tissue are determined by gas liquid chromatography after conversion to the poly-trimethylsilyl derivatives. Inhibition of aldose reductase in vivo is then assessed by comparing the residual sorbitol levels in tissues from the dosed diabetic group of rats with those of an undosed group of diabetic rats and an undosed, normal group of rats.
In the above in vivo test, an effective dose (ED) may be defined as the oral dose necessary to reduce the residual sorbitol level in the sciatic nerve of a dosed rat to a level similar to that in sciatic nerve in a normal, undosed-rat.

Row | Compound | oral ED
1 | O=C1CC2(C(=O)N1)C(=O)N(Cc1ccc(Br)cc1F)c1c(Cl)cccc12 (single isomer, unassigned) [1'-(4-bromo-2-fluorobenzyl)-7'-chloro-spiro[pyrrolidine-3,3'-indoline]-2,2'5-trione] | approximately 1.1 mg./kg.
2 | O=C1CC2(C(=O)N1)C(=O)N(Cc1ccc(Br)cc1F)c1c(F)cccc12 (single isomer, unassigned) [l'-(4-bromo-2-fluorobenzyl)-7'-fluoro-spiro[pyrrolidine-3,3'-indolinel-2,2',5-trione] | approximately 5.6 mg./kg.
